# According to US11897851B2, “Heterocyclic GLP-1 agonists” (Gasherbrum Bio, Inc., priority 2021, dated 2024):
# Molecular target: T1, GLP-1 Receptor (Homo sapiens, UniProt P43220)
# T1 construct: host or cells: HEK293/GLP1R/CRE-LUC (HEK293/CRE-Luc stably expressing the GLP-1 receptor)
# Assay: GLP-1R agonist cAMP stimulation assay (HEK293/GLP1R/CRE-LUC cells, Cisbio cAMP dynamic 2 kit);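 note: compounds tested in half-log serial dilution, cAMP detected with cAMP-d2 and anti-cAMP cryptate antibody reagents after 1 h at room temperature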
# Format: cell-based
# Conditions: HEK293/CRE-Luc cell line stably expressing the GLP-1 Receptor; 1000 cells/well; 30 min at 37° C.; 0.5 mM IBMX, 0.1% BSA; read-out: GLP1R cAMP Stimulation DR: EC50
# T1 sequence (P43220 24-463, species assumed): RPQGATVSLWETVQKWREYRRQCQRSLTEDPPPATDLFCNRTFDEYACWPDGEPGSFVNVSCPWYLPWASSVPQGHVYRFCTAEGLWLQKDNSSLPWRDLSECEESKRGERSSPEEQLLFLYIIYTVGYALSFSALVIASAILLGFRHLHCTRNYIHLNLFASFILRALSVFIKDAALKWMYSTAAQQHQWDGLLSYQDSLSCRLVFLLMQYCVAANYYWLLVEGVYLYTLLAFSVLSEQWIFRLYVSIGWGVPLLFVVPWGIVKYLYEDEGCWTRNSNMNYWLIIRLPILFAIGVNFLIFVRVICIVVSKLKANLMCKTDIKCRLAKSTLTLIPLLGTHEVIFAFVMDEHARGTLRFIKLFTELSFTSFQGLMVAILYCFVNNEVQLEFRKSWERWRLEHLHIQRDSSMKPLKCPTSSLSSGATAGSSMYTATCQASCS
row,SMILES,EC50
1,"CC1(c2ccc(Cl)cc2F)Oc2cccc(C3CCN(Cc4ncc(/C=C/C(=O)O)n4CC4CC(O)C4)CC3)c2O1 (stereo not shown) [Compound 177, (E)-3-(2-((4-(2-(4-chloro-2-fluorophenyl)-2-methylbenzo[d][1,3]dioxol-4-yl)piperidin-1-yl)methyl)-1-((3-hydroxycyclobutyl)methyl)-1H-imidazol-5-yl)acrylic acid]",0.18 nM
2,"O=C(O)/C=C/c1nnc(CN2CCC(c3cccc(OCc4ccc(Cl)cc4F)n3)CC2)n1CC(F)F [Compound 230, (E)-3-(5-((4-(6-((4-chloro-2-fluorobenzyl)oxy)pyridin-2-yl)piperidin-1-yl)methyl)-4-(2,2-difluoroethyl)-4H-1,2,4-triazol-3-yl)acrylic acid]",41 nM
3,"COCC/C(=C\c1cnc(CN2CCC(c3cccc(OCc4ccc(Cl)cc4F)n3)CC2)n1C[C@@H]1CCO1)C(=O)O [Compound 216a, (S,E)-2-((2-((4-(6-((4-chloro-2-fluorobenzyl)oxy)pyridin-2-yl)piperidin-1-yl)methyl)-1-(oxetan-2-ylmethyl)-1H-imidazol-5-yl)methylene)-4-methoxybutanoic acid]",4.4 nM
4,"COCCc1cc(-c2nnn[nH]2)cnc1CN1CCC(c2cccc3c2OC(C)(c2ccc(Cl)cc2F)O3)CC1 (stereo not shown) [Compound 256, 2-({4-[2-(4-chloro-2-fluorophenyl)-2-methyl-2H-1,3-benzodioxol-4-yl]piperidin-1-yl}methyl)-3-(2-methoxyethyl)-5-(1H-1,2,3,4-tetrazol-5-yl)pyridine]",5 nM
5,"O=C(O)/C=C/c1cn(Cc2ncco2)c(CN2CCC(c3cccc4c3OC[C@@H](c3ccc(Cl)cc3)O4)CC2)n1 [Compound 222a, (R,E)-3-(2-((4-(2-(4-chlorophenyl)-2,3-dihydrobenzo[b][1,4]dioxin-5-yl)piperidin-1-yl)methyl)-1-(oxazol-2-ylmethyl)-1H-imidazol-4-yl)acrylic acid]",6.9 nM
6,"C/C(=C\c1cnc(CN2CCC(c3cccc4c3OC(c3ccc(Cl)cc3F)O4)CC2)n1C[C@@H]1CCO1)C(=O)O (stereo partly drawn) [Compound 132a, (E)-3-(2-((4-(2-(4-chloro-2-fluorophenyl)benzo[d][1,3]dioxol-4-yl)piperidin-1-yl)methyl)-1-((S)-oxetan-2-ylmethyl)-1H-imidazol-5-yl)-2-methylacrylic acid]",1.6 nM
7,"C/C(=C\c1cnc(CN2CCC(c3cccc4c3O[C@](C)(c3ccc(Cl)cc3)O4)CC2)n1C[C@@H]1CCO1)C(=O)O [Compound 134b, (E)-3-(2-((4-((R)-2-(4-chlorophenyl)-2-methylbenzo[d][1,3]dioxol-4-yl)piperidin-1-yl)methyl)-1-(((S)-oxetan-2-yl)methyl)-1H-imidazol-5-yl)-2-methylacrylic acid]",17 nM
8,"O=C(O)C1CC1c1ccc(CN2CCC(c3cccc(OCc4ccc(Cl)cc4F)n3)CC2)nc1 (stereo not shown) [Compound 126, 2-(6-((4-(6-((4-chloro-2-fluorobenzyl)oxy)pyridin-2-yl)piperidin-1-yl)methyl)pyridin-3-yl)cyclopropane-1-carboxylic acid]",817 nM

# Now from value to compound:
row,EC50,SMILES
1,0.38 nM,"CC1(c2ccc(Cl)cc2F)Oc2cccc(C3CCN(Cc4ncc(CCC(=O)O)n4CC4CCS4(=O)=O)CC3)c2O1 (stereo not shown) [Compound 240, 3-(2-((4-(2-(4-chloro-2-fluorophenyl)-2-methylbenzo[d][1,3]dioxol-4-yl)piperidin-1-yl)methyl)-1-((1,1-dioxidothietan-2-yl)methyl)-1H-imidazol-5-yl)propanoic acid]"
2,2.7 nM,"O=C(O)/C=C/c1nnc(CN2CCC(c3cccc(OCc4ccc(Cl)cc4F)n3)CC2)n1CC1CCC1 [Compound 229, (E)-3-(5-((4-(6-((4-chloro-2-fluorobenzyl)oxy)pyridin-2-yl)piperidin-1-yl)methyl)-4-(cyclobutylmethyl)-4H-1,2,4-triazol-3-yl)acrylic acid]"
3,0.66 nM,"CCn1cncc1Cn1c(/C=C(\C)C(=O)O)cnc1CN1CCC(c2cccc3c2O[C@](C)(c2ccc(Cl)cc2F)O3)CC1 [Compound 138b, (R,E)-3-(2-((4-(2-(4-chloro-2-fluorophenyl)-2-methylbenzo[d][1,3]dioxol-4-yl)piperidin-1-yl)methyl)-1-((1-ethyl-1H-imidazol-5-yl)methyl)-1H-imidazol-5-yl)-2-methylacrylic acid]"
4,0.0069 nM,"CCn1cncc1Cn1c(/C=C(\C)C(=O)O)cnc1CN1CCC(c2cccc(OCc3ccc(Cl)cc3F)n2)CC1 [Compound 219, (E)-3-(2-((4-(6-((4-chloro-2-fluorobenzyl)oxy)pyridin-2-yl)piperidin-1-yl)methyl)-1-((1-ethyl-1H-imidazol-5-yl)methyl)-1H-imidazol-5-yl)-2-methylacrylic acid]"
5,0.015 nM,"CCn1cncc1Cn1c(CCC(=O)O)nnc1CN1CCC(c2cccc3c2OC(C)(c2ccc(Cl)cc2F)O3)CC1 (stereo not shown) [Compound 144, 3-(5-((4-(2-(4-chloro-2-fluorophenyl)-2-methylbenzo[d][1,3]dioxol-4-yl)piperidin-1-yl)methyl)-4-((1-ethyl-1H-imidazol-5-yl)methyl)-4H-1,2,4-triazol-3-yl)propanoic acid]"
6,0.41 nM,"O=C(O)/C=C/c1cnc(CN2CCC(c3cccc4c3OC[C@@H](c3ccc(Cl)cc3)O4)CC2)n1Cc1ncco1 [Compound 186a, (R,E)-3-(2-((4-(2-(4-chlorophenyl)-2,3-dihydrobenzo [b][1,4]dioxin-5-yl)piperidin-1-yl)methyl)-1-(oxazol-2-ylmethyl)-1H-imidazol-5-yl)acrylic acid]"
7,0.87 nM,"COc1cccc(Cn2c(CCC(=O)O)cnc2CN2CCC(c3cccc4c3OC(C)(c3ccc(Cl)cc3F)O4)CC2)c1 (stereo not shown) [Compound 243, 3-(2-((4-(2-(4-chloro-2-fluorophenyl)-2-methylbenzo[d][1,3]dioxol-4-yl)piperidin-1-yl)methyl)-1-(3-methoxybenzyl)-1H-imidazol-5-yl)propanoic acid]"
8,0.0048 nM,"CCn1cncc1Cn1c(/C=C/C(=O)O)nnc1CN1CCC(c2cccc(OCc3ccc(Cl)cc3F)n2)CC1 [Compound 228, (E)-3-(5-((4-(6-((4-chloro-2-fluorobenzyl)oxy)pyridin-2-yl)piperidin-1-yl)methyl)-4-((1-ethyl-1H-imidazol-5-yl)methyl)-4H-1,2,4-triazol-3-yl)acrylic acid]"
9,2.5 nM,"C[C@@H](Cn1c(/C=C/C(=O)O)cnc1CN1CCC(c2cccc3c2O[C@@](C)(c2ccc(Cl)cc2F)O3)CC1)OC1CC1 [Compound 170a, (E)-3-(2-((4-((S)-2-(4-chloro-2-fluorophenyl)-2-methylbenzo[d][1,3]dioxol-4-yl)piperidin-1-yl)methyl)-1-((S)-2-cyclopropoxypropyl)-1H-imidazol-5-yl)acrylic acid]"
10,0.71 nM,"O=C(O)/C=C/c1cnc(CN2CCC(c3cccc4c3OC[C@@H](c3ccc(Cl)cc3)O4)CC2)n1C[C@@H]1CCO1 [Compound 116a, (E)-3-(2-((4-((R)-2-(4-Chlorophenyl)-2,3-dihydrobenzo[b][1,4]dioxin-5-yl)piperidin-1-yl)methyl)-1-(((S)-oxetan-2-yl)methyl)-1H-imidazol-5-yl)acrylic acid]"
11,0.012 nM,"Cc1nocc1Cn1c(/C=C/C(=O)O)cnc1CN1CCC(c2cccc3c2OC(C)(c2ccc(Cl)cc2F)O3)CC1 (stereo not shown) [Compound 204, (E)-3-(2-((4-(2-(4-chloro-2-fluorophenyl)-2-methylbenzo[d][1,3]dioxol-4-yl)piperidin-1-yl)methyl)-1-((3-methylisoxazol-4-yl)methyl)-1H-imidazol-5-yl)acrylic acid]"
